Common to all, as to assay type: physicochemical
Data set [1] is described as follows: Test for resistance to water of the recorded images (immersion in water, visual examination of dropout). Also on record: key to water fastness plain paper: ∘: Less amount of the compound was dropped out.; Δ: About half of the compound was dropped out.; X: Large amount of the compound was dropped out. The note with it: immersed in water 2 minutes with mild stirring, dried; for water fastness ink jet paper A: ink jet print on ink jet paper A; for water fastness ink jet paper B: ink jet print on ink jet paper B; for water fastness plain paper: ink jet print on plain paper. As for the experimental part:
(§1) A liquid having the following formulation was prepared and passed through a 0.45 μm membrane filter to obtain an aqueous ink composition for ink jet printers.
(§2) An ink jet recording was conducted on three different papers, i.e. plain papers (Canon printer paper A4 (TLB5A4S)), ink jet papers A (Color BJ Paper LC 101; ex. Canon) and ink jet papers B (coated papers for ink jet printer STX73 A4; ex. Sharp) by means of an ink jet printer (trade name NOVA JET III; ex. ENCAD). The thus-recorded images were tested with respect to the resistances to light and water and a color rendering property.
Test specimen was immersed in water contained in a beaker with mild stirring for 2 minutes and dried. Amount of the compound was observed by the visual examination before and after the immersion, and dropout of the compound was judged.

The nature of data set [2]: Color rendering property (hue change under tungsten light versus standard light source, visual). The settings on record: hue change under tungsten light compared with standard light source. As for the experimental part: as §1, §2
Discoloration was judged by the visual examination by comparing the hue change under the tungsten light with that under the standard light source.

The nature of data set [3]: Test for resistance to light of the recorded images (carbon arc fade meter, Blue Scale JIS L-0841). The settings on record: 20 hours carbon arc fade meter; for light fastness (rank) ink jet paper A: ink jet print on ink jet paper A (Color BJ Paper LC 101, Canon); for light fastness (rank) ink jet paper B: ink jet print on ink jet paper B (coated paper STX73 A4, Sharp); for light fastness (rank) plain paper: ink jet print on plain paper (Canon TLB5A4S). As for the experimental part: as §1, §2
The recorded images were irradiated with light for 20 hours by means of a carbon arc fade meter (ex. SUGA Shikenkisha). Light fastness was judged according to the Blue Scale for light resistance standard as defined in JIS L-0841.

For `COc1cc(N=Nc2cc(S(=O)(=O)O)cc3cc(S(=O)(=O)O)cc(O)c23)c(NC(C)=O)cc1N=Nc1c(S(=O)(=O)O)cc2cc(S(=O)(=O)O)c(N=Nc3cc(S(=O)(=O)O)c(N)cc3N)cc2c1O` [compound 0234], in data set [1], the “water fastness ink jet paper A” value is listed as “◯”, the “water fastness ink jet paper B” value was “◯” and the “water fastness plain paper” value was “Δ”. The color rendering property entry in data set [2] is “◯”. Also, in data set [3], the “light fastness (rank) ink jet paper A” value amounted to 5 rank, the “light fastness (rank) ink jet paper B” value turned out to be 5 rank and the “light fastness (rank) plain paper” value is 5 rank.
In the case of `COc1cc(N=Nc2cc(S(=O)(=O)O)cc3cc(S(=O)(=O)O)cc(O)c23)c(N)cc1N=Nc1c(S(=O)(=O)O)cc2cc(S(=O)(=O)O)c(N=Nc3ccc(N)cc3O)cc2c1O` [compound 0264], in data set [1], the “water fastness ink jet paper A” value was “◯”, the “water fastness ink jet paper B” value was “◯” and the “water fastness plain paper” value is recorded as “◯”. In addition, the color rendering property entry in data set [2] was “◯”. Moreover, in data set [3], the “light fastness (rank) ink jet paper A” value came out at 4 rank, the “light fastness (rank) ink jet paper B” value stood at 5 rank and the “light fastness (rank) plain paper” value is given as 4-5 rank.
Consider `COc1cc(N=Nc2cc(S(=O)(=O)O)cc3cc(S(=O)(=O)O)cc(O)c23)c(C)cc1N=Nc1c(S(=O)(=O)O)cc2ccc(N=Nc3cc(S(=O)(=O)O)c(N)cc3N)cc2c1O` [compound 0005], for which, in data set [1], the “water fastness ink jet paper A” value was “◯”, the “water fastness ink jet paper B” value is “◯” and the “water fastness plain paper” value is given as “Δ˜◯”. The color rendering property result in data set [2] was “◯”. Besides, in data set [3], the “light fastness (rank) ink jet paper A” value is 4-5 rank, the “light fastness (rank) ink jet paper B” value is 5 rank and the “light fastness (rank) plain paper” value stood at 5 rank.
Regarding `COc1cc(N=Nc2cc(S(=O)(=O)O)cc3cc(S(=O)(=O)O)cc(O)c23)c(NC(C)=O)cc1N=Nc1c(S(=O)(=O)O)cc2ccc(N=Nc3ccc(N)cc3O)cc2c1O` [compound 0011], in data set [1], the “water fastness ink jet paper A” value is “◯”, the “water fastness ink jet paper B” value is on record as “◯” and the “water fastness plain paper” value is “Δ˜◯”. For the same molecule, the color rendering property entry in data set [2] is listed as “◯”. Also, in data set [3], the “light fastness (rank) ink jet paper A” value is on record as 4 rank, the “light fastness (rank) ink jet paper B” value amounted to 4 rank and the “light fastness (rank) plain paper” value is 4-5 rank.
Consider `COc1cc(N=Nc2cc(S(=O)(=O)O)cc3cc(S(=O)(=O)O)cc(O)c23)c(NC(C)=O)cc1N=Nc1c(S(=O)(=O)O)cc2cc(S(=O)(=O)O)c(N=Nc3ccc(N)cc3O)cc2c1O` [compound 0231], for which, in data set [1], the “water fastness ink jet paper A” value was “◯”, the “water fastness ink jet paper B” value is given as “◯” and the “water fastness plain paper” value is listed as “Δ”. The color rendering property result in data set [2] is given as “◯”. Moreover, in data set [3], the “light fastness (rank) ink jet paper A” value is recorded as 4 rank, the “light fastness (rank) ink jet paper B” value worked out at 5 rank and the “light fastness (rank) plain paper” value is recorded as 4-5 rank.
